Measured values from ChEMBL document CHEMBL1158626, “Structure-activity relationship (SAR) investigations of tetrahydroquinolines as BKCa agonists” (2010).

Species on record: Rattus norvegicus
Assay: Reduction in spontaneous neuronal firing in Sprague-Dawley rat at 10 uM
Type: functional

In the case of `O=C(O)c1ccc2c(c1)[C@@H]1C=CC[C@@H]1[C@@H](c1ccc(Cl)cc1Cl)N2`, the “inhibition (INH)” value was 75%.

Test system: not listed separately
Assay: Agonist activity at human BKCa channel expressed in CHO cells assessed as increase in potassium current at 3 uM by PatchXpress electrophysiology assay relative to control
Type: functional

Point of comparison: `CONC(=O)c1ccc2c(c1)[C@@H]1C=CC[C@@H]1[C@@H](c1ccc(Cl)cc1Cl)N2`, “fold change (FC)” value 2.2. Against it:
- O=C(O)c1ccc2c(c1)[C@@H]1CCC[C@@H]1[C@@H](c1ccc(Cl)cc1Cl)N2 — higher, 4.6
- O=C(O)c1ccc2c(c1)[C@@H]1C=CC[C@@H]1[C@@H](c1ccc(Cl)cc1Cl)N2 — higher, 6.7
- O=C(O)c1ccc2c(c1)[C@@H]1C(O)C(O)C[C@@H]1[C@@H](c1ccc(Cl)cc1Cl)N2 (some centres not stated) — lower, 0.9
- O=C(O)c1ccc2nc(-c3ccc(Cl)cc3Cl)c3c(c2c1)CCC3 — lower, 1
- O=C(O)c1ccc2c(c1)CC[C@@H](c1ccc(Cl)cc1Cl)N2 — lower, 0.9
- O=C(O)Cc1ccc2c(c1)[C@@H]1C=CC[C@@H]1[C@@H](c1ccc(Cl)cc1Cl)N2 — lower, 1.5
- O=C(O)c1ccc2c(c1)[C@@H]1OCC[C@@H]1[C@@H](c1ccc(Cl)cc1Cl)N2 — lower, 1
- CS(=O)(=O)NC(=O)c1ccc2c(c1)[C@@H]1C=CC[C@@H]1[C@@H](c1ccc(Cl)cc1Cl)N2 — higher, 2.7
- COC(=O)c1ccc2c(c1)[C@@H]1C=CC[C@@H]1[C@@H](c1ccc(Cl)cc1Cl)N2 — lower, 1
- OCc1ccc2c(c1)[C@@H]1C=CC[C@@H]1[C@@H](c1ccc(Cl)cc1Cl)N2 — lower, 1.5
- O=c1[nH]c(-c2ccc3c(c2)[C@@H]2C=CC[C@@H]2[C@@H](c2ccc(Cl)cc2Cl)N3)no1 — higher, 3.4
- O=C(O)c1ccc2c(c1)C1C=CCC[C@@H]1[C@@H](c1ccc(Cl)cc1Cl)N2 (single isomer, unassigned) — higher, 4.5
- O=C(O)c1ccc2c(c1)C1OCCC[C@@H]1[C@@H](c1ccc(Cl)cc1Cl)N2 (single isomer, unassigned) — lower, 1.5
- O=C(O)c1ccc2c(c1)C1CCCC[C@@H]1[C@@H](c1ccc(Cl)cc1Cl)N2 (single isomer, unassigned) — higher, 3.6

Test system: not listed separately
Assay: Agonist activity at human BKCa channel expressed in CHO cells assessed as increase in potassium current at 10 uM by PatchXpress electrophysiology assay relative to control
Type: functional

Point of comparison: `O=C(O)c1ccc2c(c1)[C@@H]1C=CC[C@@H]1[C@@H](c1ccc(C(F)(F)F)cc1)N2`, “fold change (FC)” value 6. Against it:
- Cc1ccc([C@H]2Nc3ccc(C(=O)O)cc3[C@@H]3C=CC[C@H]23)c(C)c1 — higher, 8.9
- O=C(O)c1ccc2c(c1)[C@@H]1C=CC[C@@H]1[C@@H](c1cccc(Cl)c1Cl)N2 — lower, 2.7
- O=C(O)c1ccc2c(c1)[C@@H]1C=CC[C@@H]1[C@@H](c1ccc(Cl)c(Cl)c1)N2 — higher, 12.1
- O=C(O)c1ccc2c(c1)[C@@H]1C=CC[C@@H]1[C@@H](c1ccc(Cl)cc1Cl)N2 — higher, 11.2
- O=C(O)c1ccc2c(c1)[C@@H]1C=CC[C@@H]1[C@@H](c1ccc(Cl)cc1)N2 — higher, 7.3
- O=C(O)c1ccc2c(c1)[C@@H]1C=CC[C@@H]1[C@@H](c1ccc(Br)cc1)N2 — higher, 8.9
- O=C(O)c1ccc2c(c1)[C@@H]1C=CC[C@@H]1[C@@H](c1cccc(Cl)c1)N2 — lower, 2.2
- Cc1cccc([C@H]2Nc3ccc(C(=O)O)cc3[C@@H]3C=CC[C@H]23)c1 — lower, 3.1
- O=C(O)c1ccc2c(c1)[C@@H]1C=CC[C@@H]1[C@@H](c1ccccc1)N2 — lower, 1.2
- O=C(O)c1ccc2c(c1)[C@@H]1C=CC[C@@H]1[C@@H](c1cccc(Br)c1)N2 — lower, 2.6
- CC(C)(C)[C@H]1Nc2ccc(C(=O)O)cc2[C@@H]2C=CC[C@@H]21 — lower, 0.8
- O=C(O)c1ccc2c(c1)[C@@H]1C=CC[C@@H]1[C@@H](c1ccccc1Cl)N2 — lower, 4.9
- O=C(O)c1ccc2c(c1)[C@@H]1C=CC[C@@H]1[C@@H](c1ncc(Cl)cc1Cl)N2 — lower, 2.5
- O=C(O)c1ccc2c(c1)[C@@H]1C=CC[C@@H]1CN2 — lower, 0.6
- Cn1cc([C@H]2Nc3ccc(C(=O)O)cc3[C@@H]3C=CC[C@H]23)cn1 — lower, 1
